Measurements taken from PubChem BioAssay (NCI).
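Five concentrations, 48 hours, 96-well plates. Here, GI50 denotes the concentration required for 50% inhibition of growth. At the TGI there is no net growth.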

Columns and labels:
Test in all cases: DTP human tumour cell line panel, 48 h
KM12 colon = test system: KM12 colon
SF-268 CNS = test system: SF-268 CNS
MCF7 breast = test system: MCF7 breast
CCRF-CEM leukemia = test system: CCRF-CEM leukemia
NCI-H522 lung = test system: NCI-H522 lung
UACC-257 melanoma = test system: UACC-257 melanoma
HOP-62 NSCLC = test system: HOP-62 NSCLC
NCI-H23 lung = test system: NCI-H23 lung
HT29 colon = test system: HT29 colon
RXF 393 renal = test system: RXF 393 renal
OVCAR-5 ovarian = test system: OVCAR-5 ovarian
MOLT-4 leukemia = test system: MOLT-4 leukemia
SR leukemia = test system: SR leukemia
NCI/ADR-RES ovarian = test system: NCI/ADR-RES ovarian
HL-60(TB) leukemia = test system: HL-60(TB) leukemia
TK-10 renal = test system: TK-10 renal
SF-295 CNS = test system: SF-295 CNS
SF-539 CNS = test system: SF-539 CNS
UACC-62 melanoma = test system: UACC-62 melanoma
OVCAR-3 ovarian = test system: OVCAR-3 ovarian
HS 578T breast = test system: HS 578T breast
SN12C renal = test system: SN12C renal
K-562 leukemia = test system: K-562 leukemia
MDA-MB-435 = test system: MDA-MB-435
SK-MEL-28 melanoma = test system: SK-MEL-28 melanoma
BT-549 breast = test system: BT-549 breast
M14 melanoma = test system: M14 melanoma
SNB-75 CNS = test system: SNB-75 CNS

In the case of `O=c1c2cccc(F)c2sc2c(NCCCNCCO)nc3ccccc3c12`, the GI50 (KM12 colon) is reported as 1610 nM, the TGI (KM12 colon) is reported as 3040 nM and the GI50 (SF-268 CNS) is reported as 1550 nM. It also gave a TGI (SF-268 CNS) of 3120 nM, a GI50 (MCF7 breast) of 1140 nM and a TGI (MCF7 breast) of 2530 nM. The GI50 (CCRF-CEM leukemia) was 1410 nM, the TGI (CCRF-CEM leukemia) was 3870 nM and the GI50 (NCI-H522 lung) was 1760 nM. The TGI (NCI-H522 lung) was 3690 nM, the GI50 (UACC-257 melanoma) was 2030 nM and the TGI (UACC-257 melanoma) was 3990 nM. For the same compound, the GI50 (HOP-62 NSCLC) was 1540 nM, the TGI (HOP-62 NSCLC) was 3590 nM and the GI50 (NCI-H23 lung) was 1540 nM. It also gave a TGI (NCI-H23 lung) of 2990 nM, a GI50 (HT29 colon) of 1510 nM and a TGI (HT29 colon) of 3250 nM. It also gave a GI50 (RXF 393 renal) of 1370 nM, a TGI (RXF 393 renal) of 2730 nM and a GI50 (OVCAR-5 ovarian) of 1650 nM. The TGI (OVCAR-5 ovarian) was 3070 nM, the GI50 (MOLT-4 leukemia) was 698 nM and the TGI (MOLT-4 leukemia) was 2430 nM. The GI50 (SR leukemia) was 984 nM, the TGI (SR leukemia) was 4850 nM and the GI50 (NCI/ADR-RES ovarian) was 1520 nM. The TGI (NCI/ADR-RES ovarian) was 3060 nM, the GI50 (HL-60(TB) leukemia) was 1920 nM and the TGI (HL-60(TB) leukemia) was 3910 nM. It also gave a GI50 (TK-10 renal) of 1960 nM, a TGI (TK-10 renal) of 3570 nM and a GI50 (SF-295 CNS) of 1760 nM. For the same compound, the TGI (SF-295 CNS) was 3190 nM, the GI50 (SF-539 CNS) was 1650 nM and the TGI (SF-539 CNS) was 3050 nM. For the same compound, the GI50 (UACC-62 melanoma) was 1770 nM, the TGI (UACC-62 melanoma) was 3260 nM and the GI50 (OVCAR-3 ovarian) was 1700 nM. It also gave a TGI (OVCAR-3 ovarian) of 3120 nM, a GI50 (HS 578T breast) of 1550 nM and a TGI (HS 578T breast) of 3530 nM. The GI50 (SN12C renal) was 1440 nM, the TGI (SN12C renal) was 2900 nM and the GI50 (K-562 leukemia) was 1750 nM. For the same compound, the TGI (K-562 leukemia) was 4640 nM, the GI50 (MDA-MB-435) was 1630 nM and the TGI (MDA-MB-435) was 3000 nM. For the same compound, the GI50 (SK-MEL-28 melanoma) was 1860 nM, the TGI (SK-MEL-28 melanoma) was 3310 nM and the GI50 (BT-549 breast) was 6160 nM. It also gave a TGI (BT-549 breast) of 19800 nM, a GI50 (M14 melanoma) of 1530 nM and a TGI (M14 melanoma) of 2980 nM. It also gave a GI50 (SNB-75 CNS) of 1560 nM.
